Test results taken from patent US20230028918A1, “COMPOSITIONS COMPRISING PKC-BETA INHIBITORS AND PROCESSES FOR THE PREPARATION THEREOF” (priority 2019, published 2023).
≈ marks a conversion by molar mass, not a printed value. Where two headings read alike, the source gives them in different places.

Tests used:
[1] = target: Human PKC delta (Homo sapiens, UniProt Q05655); experiment: PKC inhibition, in vitro enzyme assay; format: biochemical
From the text: (§1) The methods for these determinations have been described (Grant, et al. 2010, Eur. J. Pharmacol. 627:16-25).

[2] = system: pSHP2 (PKCβ cell assay); experiment: pSHP2 (PKCβ cell assay); format: cell-based
From the text: as §1

[3] = system: Interleukin-8 release; experiment: Interleukin-8 release; format: cell-based
From the text: as §1

[4] = system: PKCβ signaling; experiment: PKCβ signaling assay: SERBP1 phosphorylation after PMA + ionomycin in whole blood of CLL/SLL patients dosed with Compound A; format: in vivo, human; conditions: for inhibition at 100 mg / inhibition at 200 mg / inhibition at 250 mg: Homo sapiens
Method: A phosphor-flow assay was employed to measure the phosphorylation of SERBP1, a novel substrate for PKCP. Whole blood samples were taken at the appropriate time points from CLL patients receiving compound A as part of a phase 1 study, and were shipped overnight and processed for testing the next day. Whole blood was stimulated with PMA+ionomycin, cells were permeabilized, and the amount of SERBP1 phophorylation was measured. The reported data are the CD19+pSERBP1+ population, normalized to each patient's own unstimulated sample at the corresponding time point.
To monitor PKCβ mediated signaling, a biomarker marker assay was developed using Alexa-647 label anti-phospho_SERBP1 antibody.
Briefly, whole blood specimens from each patient was drawn into sodium citrate collection tubes. Samples will be shipped overnight to the flow cytometry lab for processing and testing
Duplicates will be prepared for each treatment condition per donor. The following conditions will be prepared for each donor, unstimulated and PMA and ionomycin stimulated samples. Whole blood 200 μL will be placed in appropriate size cryovial. The samples will be treated as described in Table 1 and incubated at 37° C., 5.0% CO2 for 25-30 minutes.
Following stimulation 2 mL 1×BD FACSLyse will be added, then vortexed and incubated for 12-15 minutes in the dark at ART. Samples will be stored immediately at −80° C. until testing.
Samples from each subject will be processed in batches with all timepoints and include a normal human control unstimulated and stimulated sample. All samples will be processed and collected in singlet.
Frozen samples will be thawed by placing samples in a 37° C. water or bead bath. Sample will be transferred to tubes and centrifuged at 1700 rpm, for 5 minutes at ambient room temperature (ART) with Brake on. Samples will be decanted and washed twice with 1 mL Stain Buffer (FBS). Samples will be resuspended in 200 μL Stain Buffer (FBS) and […] appropriate volume of fluorochrome-conjugated monoclonal surface antibodies will be added (Table 2).
Samples will be hand mixed and incubated for 15-20 minutes in the dark at ART. Samples will be washed twice with 1 mL Stain Buffer (FBS). After wash, 200 μL Fix/Perm buffer will be added to each sample, then vortexed and incubated for 30-35 minutes in the dark at 2-8° C. Samples will be washed twice with 1 ml 1× Permeabilization Buffer (Perm Buffer). 100 μL of 1× Perm Buffer and appropriate volume of pSERBP1 AF647 will be added (documented in the study paperwork) and incubated for 30-35 minutes in the dark at 2-8° C. Samples will be washed twice with 1 mL 1× Perm Buffer. Samples will be resuspended in 125 μL 1× Stain Buffer FBS for acquisition on the flow cytometer.
Flow cytometric data acquisition will be performed using the BD FACSCantoII™ which evaluates two scatter parameters and up to eight color fluorescence channels. Data will be acquired using BD FACSDiva™ software (version 6.1.3 or higher). The samples will be acquired to distinguish the cells of interest from other cell types in the peripheral blood by electronic gating on the basis of CD45 versus side scatter. The instrument will be set to collect 50,000 CD45+ lymphocyte events. Dual combination cytograms and/or histograms will be generated to illustrate the LL (−/−), LR (+/−), UL (−/+), UR (+/+) and/or interval gate for the fraction of the cells. The Flow Cytograms will be printed and maintained with study binder.
The Median Fluorescence Intensity for the AF647 channel will be reported for each population (CD45, CD3, CD19 and CD20). Relative % data will also be reported for CD3+, CD3−CD19+, CD3−CD20+, CD3−CD19+HLADR+CD86+, and CD3−CD20+HLADR+CD86+. Data will be analyzed by Microsoft Excel to obtain descriptive statistics; i.e. Mean, SD, and CV %.
The flow cytometry data are analyzed to determine the amount of SERBP1 phosphorylation following PMA/ionomycin stimulation.

[5] = Compound A plasma concentration and food effect in patients; format: in vivo, human; conditions: for Compound A Plasma Concentration: Day 8 pre-dose trough (Cmin); for concentration at 3 h post-dose on Day 8: human, plasma, Day 8, 3 h post-dose peak
[6] = Clinical tolerability; format: in vivo; conditions: human, plasma, oral; clinical trial, compound taken with food; read-out: Plasma Cmax that is well-tolerated
[7] = system: primary CLL cells; experiment: Immunoblot of BCR signaling in primary CLL cells; format: cell-based; conditions: versus vehicle control
[8] = system: primary CLL cells; experiment: CCL3 and CCL4 secretion by primary CLL cells (ELISA); format: cell-based; conditions: 5 μM, presence or absence of anti-IgM ligation, 24 hrs
[9] = system: primary CLL cells with WT and C481S BTK; experiment: CD86 and HLA-DR expression on CpG-stimulated primary CLL cells with WT and C481S BTK (flow cytometry); format: cell-based; conditions: up to 10 μM, CpG stimulation, 48 hrs, baseline and post-relapse samples from ibrutinib treated patients
Method: Cryopreserved baseline samples and post-relapse samples from ibrutinib treated patients (n=2) were thawed and treated with up to 10 μM compound A and stimulated with 3.2 M CpG. CD86 (FIG. 3A) and HLA-DR (FIG. 3B) expression was measured by flow cytometry at 48 hrs. Mean fluorescence intensity (MFI) is reported. Error bars represent standard deviation.

[10] = physchem; conditions: pH 7

Human PKC delta, sequence (Q05655 whole entry): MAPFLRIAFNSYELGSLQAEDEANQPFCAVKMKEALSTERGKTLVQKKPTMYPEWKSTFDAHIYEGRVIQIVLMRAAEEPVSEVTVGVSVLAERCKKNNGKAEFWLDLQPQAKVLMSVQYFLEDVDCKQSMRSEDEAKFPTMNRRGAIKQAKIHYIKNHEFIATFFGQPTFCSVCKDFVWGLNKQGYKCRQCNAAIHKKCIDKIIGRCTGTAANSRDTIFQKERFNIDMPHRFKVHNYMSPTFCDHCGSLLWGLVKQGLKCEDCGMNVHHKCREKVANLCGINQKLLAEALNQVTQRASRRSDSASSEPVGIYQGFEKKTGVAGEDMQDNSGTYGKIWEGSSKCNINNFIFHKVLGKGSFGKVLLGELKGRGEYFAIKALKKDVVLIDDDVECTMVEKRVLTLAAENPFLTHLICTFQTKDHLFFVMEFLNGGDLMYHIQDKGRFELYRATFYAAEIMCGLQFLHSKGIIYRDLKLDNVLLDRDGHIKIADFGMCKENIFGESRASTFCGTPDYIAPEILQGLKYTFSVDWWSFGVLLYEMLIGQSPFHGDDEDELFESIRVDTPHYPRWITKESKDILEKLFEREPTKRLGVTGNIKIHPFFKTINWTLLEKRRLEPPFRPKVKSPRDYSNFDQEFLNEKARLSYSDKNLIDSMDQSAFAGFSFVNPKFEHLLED

Structure (SMILES): Cc1ncc(F)c(Nc2n[nH]c3c2CN(C(=O)N2C[C@@H](C)N(CC4CCOCC4)C[C@@H]2C)C3(C)C)n1 [Compound A, 5-{[(2S,5R)-2,5-dimethyl-4-(tetrahydro-2H-pyran-4-ylmethyl)piperazin-1-yl]carbonyl}-N-(5-fluoro-2-methylpyrimidin-4-yl)-6,6-dimethyl-1,4,5,6-tetrahydropyrrolo[3,4-c]pyrazol-3-amine]
- Inhibition of PKC delta [1]: does not significantly inhibit
- IC50 [2]: 9.8 nM
- IC50 [3]: 39 nM
- Mean Stimulation at Day 8 3 h Post-Dose Peak ([4]; 100 mg BID, N = 1): 96%
- Mean Stimulation at Day 8 Pre-Dose Trough (Cmin) ([4]; 100 mg BID, N = 1): 109%
- Mean Stimulation at Day 8 3 h Post-Dose Peak ([4]; 200 mg BID, N = 3): 100%
- Mean Stimulation at Day 8 Pre-Dose Trough (Cmin) ([4]; 200 mg BID, N = 3): 121%
- Mean Stimulation at Day 8 3 h Post-Dose Peak ([4]; 250 mg BID, N = 3): 102%
- Mean Stimulation at Day 8 Pre-Dose Trough (Cmin) ([4]; 250 mg BID, N = 3): 104%
- Phosphorylation of SERBP1 (CD19+pSERBP1+ population) ([4]; CLL patients in phase 1 study, PMA + ionomycin stimulated whole blood): inhibits phosphorylation of SERBP1 in vivo
- inhibition at 100 mg ([4]; 192 h, 100 mg BID, Day 8 pre-dose, read-out: % Inhibition of Stimulation at Trough (Cmin)): 51%
- inhibition at 200 mg ([4]; 192 h, 200 mg BID, Day 8 pre-dose, read-out: % Inhibition of Stimulation at Trough (Cmin)): 70%
- inhibition at 250 mg ([4]; 192 h, 250 mg BID, Day 8 pre-dose, read-out: % Inhibition of Stimulation at Trough (Cmin)): 97%
- inhibition at 100 mg ([4]; 100 mg BID, Day 8, 3 h post-dose, read-out: % Inhibition of Stimulation at Peak): 122%
- inhibition at 200 mg ([4]; 200 mg BID, Day 8, 3 h post-dose, read-out: % Inhibition of Stimulation at Peak): 102%
- inhibition at 250 mg ([4]; 250 mg BID, Day 8, 3 h post-dose, read-out: % Inhibition of Stimulation at Peak): 98%
- Plasma concentration that completely suppresses PKCβ signaling ([4]; whole blood samples from patients with CLL or SLL): 500 to 600 ng/mL
- Compound A Plasma Concentration ([5]; 100 mg BID): 186 ng/mL
- Compound A Plasma Concentration ([5]; 200 mg BID): 295 ng/mL
- Compound A Plasma Concentration ([5]; 250 mg BID): 542 ng/mL
- Effect of food on the PK profile ([5]; clinical trial data): does not have a significant effect
- concentration at 3 h post-dose on Day 8 ([5]; 100 mg BID): 587 ng/mL
- concentration at 3 h post-dose on Day 8 ([5]; 200 mg BID): 837 ng/mL
- concentration at 3 h post-dose on Day 8 ([5]; 250 mg BID): 1310 ng/mL
- Effect of food on the pharmacokinetics ([5]; single dose of the IR formulations): no significant effect
- Cmax [6]: ~2000 ng/mL
- Phosphorylation of PKCβ and downstream targets (pPKCβ, pERK, pIκBα, pGSK3β) [7]: decreased phosphorylation
- CCL3 and CCL4 secretion [8]: inhibition of pro-inflammatory cytokine expression
- CD86 and HLA-DR expression (MFI) [9]: reduces activation
- solubility at 24 h [10]: 1040 µg/mL (≈ 2080 µM)
